Assay [1] is described as follows: Antiinflammatory activity against cytochalasin-activated human PMNC assessed as inhibition of platelet activating factor-induced elastase release by p-nitroanilide formation assay. In kind it is functional.
The species entered for another assay is Homo sapiens. Briefly: Induction of elastase release in human PMNC assessed as increase in p-nitroanilide formation. In kind it is functional.

Values after ≈ are worked out from the molar mass of the structure shown.

As for `C[C@@H]1C(=O)O[C@H]2[C@H](O)[C@@]34[C@H]5C[C@@H](C(C)(C)C)[C@]36[C@@H](OC(=O)[C@@H]6O)O[C@@]4(C(=O)O5)[C@@]12O` [GINKOLIDE B], the IC50 in assay [1] is 72 µg/mL (≈ 170 µM).

As to `C[C@H]1O[C@@H](O[C@H]2[C@@H](O)C[C@H](O[C@H]3[C@@H](O)C[C@H](O[C@H]4CC[C@@]5(C)[C@H](CC[C@@H]6[C@@H]5CC[C@]5(C)[C@@H](C7=CC(=O)OC7)CC[C@]65O)C4)O[C@@H]3C)O[C@@H]2C)C[C@H](O)[C@@H]1O`, in the assay listed under Homo sapiens, the Activity entry was “Dose-dependent effect”.
